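Dose response: 5 concentrations. Exposure: 48 h. Format: 96-well plates. Endpoint: linear interpolation; highest concentration if not reached. At the GI50, growth is halved.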 Active and inactive are the calls of the source. Rule as the data show it: active = GI50 up to about 1.1 µM and inactive = higher.
Tests used:
Experiment in all cases: growth of human tumour cells (NCI), 48 h
786-0 = test system: 786-0
A549 = test system: A549
ACHN = test system: ACHN
CAKI-1 = test system: CAKI-1
CCRF-CEM = test system: CCRF-CEM
COLO 205 = test system: COLO 205
HL-60 = test system: HL-60
HOP-62 = test system: HOP-62
IGROV-1 = test system: IGROV-1
K562 = test system: K562
M14 = test system: M14
MCF7 = test system: MCF7
MDA-MB-435 = test system: MDA-MB-435
MOLT-4 = test system: MOLT-4
Malme-3M = test system: Malme-3M
NCI-H23 = test system: NCI-H23
NCI-H460 = test system: NCI-H460
NCI/ADR-RES = test system: NCI/ADR-RES
OVCAR-4 = test system: OVCAR-4
OVCAR-5 = test system: OVCAR-5
RPMI-8226 = test system: RPMI-8226
RXF 393 = test system: RXF 393
SF-268 = test system: SF-268
SK-MEL-28 = test system: SK-MEL-28
SK-MEL-2 = test system: SK-MEL-2
SK-MEL-5 = test system: SK-MEL-5
SK-OV-3 = test system: SK-OV-3
SNB-75 = test system: SNB-75
SR = test system: SR
SW-620 = test system: SW-620
T47D = test system: T47D
U-251 = test system: U-251
UACC-62 = test system: UACC-62
A498 = test system: A498
DU-145 = test system: DU-145
EKVX = test system: EKVX
HCC 2998 = test system: HCC 2998
HCT-116 = test system: HCT-116
HCT-15 = test system: HCT-15
HOP-92 = test system: HOP-92
HT-29 = test system: HT-29
Hs-578T = test system: Hs-578T
KM12 = test system: KM12
LOX IMVI = test system: LOX IMVI
MDA-MB-231 = test system: MDA-MB-231
MDA-N = test system: MDA-N
NCI-H226 = test system: NCI-H226
OVCAR-3 = test system: OVCAR-3
OVCAR-8 = test system: OVCAR-8
PC-3 = test system: PC-3
SF-295 = test system: SF-295
SF-539 = test system: SF-539
SN12C = test system: SN12C
SNB-19 = test system: SNB-19
TK-10 = test system: TK-10
UACC-257 = test system: UACC-257
UO-31 = test system: UO-31

`COc1ccc(-c2coc3cc(O)cc(O)c3c2=O)cc1` [BIOCHANIN] was tested, and the GI50 (786-0) was > 10 µM (inactive), the GI50 (A549) was > 10 µM (inactive) and the GI50 (ACHN) was > 10 µM (inactive). For the same compound, the GI50 (CAKI-1) was > 10 µM (inactive), the GI50 (CCRF-CEM) was > 10 µM (inactive) and the GI50 (COLO 205) was > 10 µM (inactive). The GI50 (HL-60) was > 10 µM (inactive), the GI50 (HOP-62) was > 10 µM (inactive) and the GI50 (IGROV-1) was > 10 µM (inactive). The GI50 (K562) was > 10 µM (inactive), the GI50 (M14) was > 10 µM (inactive) and the GI50 (MCF7) was > 10 µM (inactive). For the same compound, the GI50 (MDA-MB-435) was > 10 µM (inactive), the GI50 (MOLT-4) was > 10 µM (inactive) and the GI50 (Malme-3M) was > 10 µM (inactive). The GI50 (NCI-H23) was > 10 µM (inactive), the GI50 (NCI-H460) was > 10 µM (inactive) and the GI50 (NCI/ADR-RES) was > 10 µM (inactive). The GI50 (OVCAR-4) was > 10 µM (inactive), the GI50 (OVCAR-5) was > 10 µM (inactive) and the GI50 (RPMI-8226) was > 10 µM (inactive). For the same compound, the GI50 (RXF 393) was > 10 µM (inactive), the GI50 (SF-268) was > 10 µM (inactive) and the GI50 (SK-MEL-28) was > 10 µM (inactive). The GI50 (SK-MEL-2) was > 10 µM (inactive), the GI50 (SK-MEL-5) was > 10 µM (inactive) and the GI50 (SK-OV-3) was > 10 µM (inactive). The GI50 (SNB-75) was > 10 µM (inactive), the GI50 (SR) was > 10 µM (inactive) and the GI50 (SW-620) was > 10 µM (inactive). The GI50 (T47D) was > 10 µM (inactive), the GI50 (U-251) was > 10 µM (inactive) and the GI50 (UACC-62) was > 10 µM (inactive).
`Cn1cc(C(=O)c2nccc3c2cnc2ccccc23)ccc1=O` was tested, and the GI50 (786-0) was > 100 µM (inactive), the GI50 (A498) was > 100 µM (inactive) and the GI50 (A549) was 56.1 µM (inactive). The GI50 (ACHN) was 12.2 µM (inactive), the GI50 (CAKI-1) was 13.2 µM (inactive) and the GI50 (CCRF-CEM) was > 100 µM (inactive). The GI50 (COLO 205) was 69.5 µM (inactive), the GI50 (DU-145) was > 100 µM (inactive) and the GI50 (EKVX) was > 100 µM (inactive). The GI50 (HCC 2998) was > 100 µM (inactive), the GI50 (HCT-116) was 31.9 µM (inactive) and the GI50 (HCT-15) was > 100 µM. For the same compound, the GI50 (HL-60) was > 100 µM (inactive), the GI50 (HOP-62) was 25.9 µM (inactive) and the GI50 (HOP-92) was > 100 µM (inactive). For the same compound, the GI50 (HT-29) was > 100 µM (inactive), the GI50 (Hs-578T) was > 100 µM (inactive) and the GI50 (K562) was > 100 µM (inactive). For the same compound, the GI50 (KM12) was > 100 µM (inactive), the GI50 (LOX IMVI) was > 100 µM (inactive) and the GI50 (M14) was > 100 µM (inactive). For the same compound, the GI50 (MDA-MB-231) was > 100 µM (inactive), the GI50 (MDA-MB-435) was > 100 µM (inactive) and the GI50 (MDA-N) was > 100 µM (inactive). The GI50 (MOLT-4) was > 100 µM (inactive), the GI50 (Malme-3M) was > 100 µM (inactive) and the GI50 (NCI-H226) was > 100 µM (inactive). The GI50 (NCI-H23) was > 100 µM (inactive), the GI50 (NCI-H460) was 26.5 µM (inactive) and the GI50 (NCI/ADR-RES) was > 100 µM (inactive). For the same compound, the GI50 (OVCAR-3) was > 100 µM (inactive), the GI50 (OVCAR-4) was > 100 µM (inactive) and the GI50 (OVCAR-5) was > 100 µM (inactive). The GI50 (OVCAR-8) was > 100 µM (inactive), the GI50 (PC-3) was > 100 µM (inactive) and the GI50 (RPMI-8226) was > 100 µM (inactive). For the same compound, the GI50 (RXF 393) was < 0.01 µM (active), the GI50 (SF-268) was > 100 µM (inactive) and the GI50 (SF-295) was > 100 µM (inactive). For the same compound, the GI50 (SF-539) was > 100 µM (inactive), the GI50 (SK-MEL-28) was > 100 µM (inactive) and the GI50 (SK-MEL-2) was > 100 µM (inactive). The GI50 (SK-MEL-5) was 15.3 µM (inactive), the GI50 (SK-OV-3) was > 100 µM (inactive) and the GI50 (SN12C) was 59.3 µM (inactive). The GI50 (SNB-19) was > 100 µM (inactive), the GI50 (SNB-75) was 29.4 µM (inactive) and the GI50 (SR) was 8.17 µM (inactive). The GI50 (SW-620) was > 100 µM (inactive), the GI50 (T47D) was > 100 µM (inactive) and the GI50 (TK-10) was > 100 µM (inactive). For the same compound, the GI50 (U-251) was > 100 µM (inactive), the GI50 (UACC-257) was > 100 µM (inactive) and the GI50 (UACC-62) was > 100 µM (inactive). The GI50 (UO-31) was 32.1 µM (inactive).
For `N#Cc1nc(/C=C/c2cccs2)oc1N`, the GI50 (786-0) was > 100 µM (inactive), the GI50 (A498) was > 100 µM (inactive) and the GI50 (A549) was > 100 µM (inactive). For the same compound, the GI50 (ACHN) was 76.9 µM (inactive), the GI50 (CAKI-1) was 65.3 µM (inactive) and the GI50 (CCRF-CEM) was 25.4 µM (inactive). The GI50 (DU-145) was > 100 µM (inactive), the GI50 (EKVX) was 33.7 µM (inactive) and the GI50 (HCT-116) was > 100 µM (inactive). For the same compound, the GI50 (HCT-15) was 94.4 µM, the GI50 (HL-60) was 12.6 µM (inactive) and the GI50 (HOP-62) was > 100 µM (inactive). For the same compound, the GI50 (HOP-92) was 35.8 µM (inactive), the GI50 (HT-29) was > 100 µM (inactive) and the GI50 (Hs-578T) was > 100 µM (inactive). The GI50 (IGROV-1) was 65.9 µM (inactive), the GI50 (K562) was 82.4 µM (inactive) and the GI50 (KM12) was > 100 µM (inactive). For the same compound, the GI50 (LOX IMVI) was > 100 µM (inactive), the GI50 (M14) was 97.5 µM (inactive) and the GI50 (MCF7) was 99.1 µM (inactive). The GI50 (MDA-MB-231) was > 100 µM (inactive), the GI50 (MDA-MB-435) was > 100 µM (inactive) and the GI50 (MDA-N) was > 100 µM (inactive). The GI50 (MOLT-4) was 45 µM (inactive), the GI50 (OVCAR-5) was > 100 µM (inactive) and the GI50 (OVCAR-8) was > 100 µM (inactive). For the same compound, the GI50 (PC-3) was 97.1 µM (inactive), the GI50 (RPMI-8226) was 27.8 µM (inactive) and the GI50 (RXF 393) was > 100 µM (inactive). The GI50 (SF-268) was > 100 µM (inactive), the GI50 (SK-MEL-28) was > 100 µM (inactive) and the GI50 (SK-MEL-2) was > 100 µM (inactive). The GI50 (SK-MEL-5) was 51.1 µM (inactive), the GI50 (SK-OV-3) was > 100 µM (inactive) and the GI50 (SN12C) was > 100 µM (inactive). For the same compound, the GI50 (SNB-19) was > 100 µM (inactive), the GI50 (SNB-75) was > 100 µM (inactive) and the GI50 (SR) was 13.1 µM (inactive). For the same compound, the GI50 (SW-620) was > 100 µM (inactive), the GI50 (TK-10) was 61.4 µM (inactive) and the GI50 (U-251) was 95.3 µM (inactive). For the same compound, the GI50 (UACC-257) was > 100 µM (inactive), the GI50 (UACC-62) was > 100 µM (inactive) and the GI50 (UO-31) was 10.4 µM (inactive).
